# In patent publication US20250099486A1, “WOUND HEALING MEDICAMENT” (The University of Sheffield, priority 2017, published 2025):
# Test system: full-thickness wounds (20 mm)
# Experiment: Full-thickness excisional rat wound model
# Type: in vivo, male Sprague-Dawley (SD) rats
# Description: For in vivo experiments, 20 mm diameter and 1.2 mm thickness circles of hydrogels were prepared. These samples were sterilized using ethanol (70%) solution, air dried and equilibrated in PBS briefly before placing on the wound. For animal trials, male Sprague-Dawley (SD) rats weighing 140-170 g were used in the study. The animals had free access to food and water and were kept in the animal house facility of the Centre of Excellence in Molecular Biology (CEMB), Lahore. All animals were treated according to procedures approved by the Institutional Animal Ethics Committee at CEMB, Lahore, Pakistan. Animals were anesthetized with ketamine (100 mg/kg body weight) and xylazine (10 mg/kg body weight) and then the fur from the dorsal side was removed with a hair trimmer (Dingling professional hair clipper, RF-608, China). The backs of the rats were completely shaved for adhesive tape fixation and dressing. After shaving, the backs were cleaned with ethanol and then they were transferred onto a clean sterilized table and three circular shaped wounds were created by removing skin at three marked areas with the help of surgical scissors (Noorani Surgical Medical Supplies, Pakistan). Immediately followed the excision process, one of these wounds was covered with sterilized, 2-deoxy-D-ribose-loaded (using 70% ethanol) membrane circles and the other was covered with the same material membranes but without any 2-deoxy-D-ribose. Both the implanted membranes were sutured in position using sterile braided silk sutures (Mersilk, diameter 220 microns). The scaffolds were covered with adhesive plaster (Mepore, Sweden), further dressed with cotton gauze and finally secured with white surgical adhesive tape (Nitto, Japan) to prevent damage from self-grooming. One of these wounds was kept open and covered with dressing only (Mepore, Sweden) to serve as a negative control.
# Surgical dressings were removed after three days of membrane implantation. On days 0, 3, 9, 11, 14 and 17 post-wounding, the wounds were measured and photographed. The wound areas were quantified using Image j software. By the end of experiments, on day 17, rats were euthanized with an overdose of anaesthesia and tissue sections from Implantation sites of normal, sham, control and 2-deoxy-D-ribose-loaded scaffold treated groups were removed. The samples were fixed in 3.7% paraformaldehyde (Sigma-Aldrich, USA) solution for 24 hours at room temperature. They were dehydrated using various concentrations of ethanol and water from 70% to 100% and paraffin blocks were made.
# Sections of 6 μm thick were cut from the paraffin embedded samples with a microtome (Leica TP 1020 Automatic Tissue Processor) and placed on Superfrost® plus slides (Menzel-Gläser, Denmark). Conventional Haematoxylin and Eosin (H&E) staining and Gouldner's trichrome staining was performed (Yar et al., International Journal of Polymeric Materials and Polymeric Biomaterials. 2016) before mounting in DPX mounting medium (Fisher Scientific) with a coverslip.
# For immunohistochemistry, 6 μm sections were processed with a mouse/rabbit specific HRP/DAB (ABC) Detection IHC Kit (Abcam). After rehydration, antigen retrieval and protein blocking steps, the sections were incubated with 3 different monoclonal antibodies (rabbit anti-CD34 (Abcam) 1:1000, mouse anti-CD80 (Santa Cruz) 1:100 and mouse anti-CD163 (AbD Serotec) 1:300) for 2 hours diluted in 1% BSA (Sigma-Aldrich). This was followed by 10 min incubation with a secondary biotinylated goat anti-polyvalent antibody (Abcam Detection IHC Kit). After incubation with an avidin and biotinylated horseradish peroxidase, the target proteins were visualized by incubation in peroxidase substrate and DAB chromogen (Abcam Detection IHC Kit). Samples were then counterstained with haematoxylin, dehydrated, and mounted as per H&E protocol. Controls consisted of samples incubated without primary and secondary antibodies, or incubated only with secondary antibodies. […]
# [1] = 17 days, loaded CS/collagen scaffold
compound,measurement,setting,value
O=CC[C@H](O)[C@H](O)CO [2-deoxy-D-ribose],epithelium and hair follicles (Goldner's trichrome),[1],epithelium and hair follicles already formed
same,wound healing by histology (H&E),[1],essentially complete
same,vascularisation (staining for CD34 positive cells),added to chitosan/collagen hydrogel,increase in vascularisation
same,attachment of scaffold to the surrounding tissues,"day 3, loaded CS/collagen scaffold",very much attached to the surrounding tissues
same,wound area,"day 9, loaded CS/collagen hydrogel",around 50%
same,wound area healed,"day 11, loaded CS/collagen hydrogel",more than 50%
same,wound closure,"day 17, loaded CS/collagen hydrogel",completely closed
same,wound healing,loaded in CS/collagen hydrogel,accelerated
